Experimental data from publication PMC9921777, “Coumarin-Based Sulfonamide Derivatives as Potential DPP-IV Inhibitors: Pre-ADME Analysis, Toxicity Profile, Computational Analysis, and In Vitro Enzyme Assay” (Molecules, 2023).

Experiments:
DPP-IV enzyme = DPP-IV enzyme (Homo sapiens, UniProt P27487); assay: In vitro DPP-IV enzyme inhibition assay (Cayman Chemical kit, item 700210); settings: for inhibition at 250 µM: read-out: % Inhibition (at Conc.)
DPP-IV = DPP-IV enzyme assay of coumarin; cited from earlier work

Chain of DPP-IV enzyme (P27487 whole entry): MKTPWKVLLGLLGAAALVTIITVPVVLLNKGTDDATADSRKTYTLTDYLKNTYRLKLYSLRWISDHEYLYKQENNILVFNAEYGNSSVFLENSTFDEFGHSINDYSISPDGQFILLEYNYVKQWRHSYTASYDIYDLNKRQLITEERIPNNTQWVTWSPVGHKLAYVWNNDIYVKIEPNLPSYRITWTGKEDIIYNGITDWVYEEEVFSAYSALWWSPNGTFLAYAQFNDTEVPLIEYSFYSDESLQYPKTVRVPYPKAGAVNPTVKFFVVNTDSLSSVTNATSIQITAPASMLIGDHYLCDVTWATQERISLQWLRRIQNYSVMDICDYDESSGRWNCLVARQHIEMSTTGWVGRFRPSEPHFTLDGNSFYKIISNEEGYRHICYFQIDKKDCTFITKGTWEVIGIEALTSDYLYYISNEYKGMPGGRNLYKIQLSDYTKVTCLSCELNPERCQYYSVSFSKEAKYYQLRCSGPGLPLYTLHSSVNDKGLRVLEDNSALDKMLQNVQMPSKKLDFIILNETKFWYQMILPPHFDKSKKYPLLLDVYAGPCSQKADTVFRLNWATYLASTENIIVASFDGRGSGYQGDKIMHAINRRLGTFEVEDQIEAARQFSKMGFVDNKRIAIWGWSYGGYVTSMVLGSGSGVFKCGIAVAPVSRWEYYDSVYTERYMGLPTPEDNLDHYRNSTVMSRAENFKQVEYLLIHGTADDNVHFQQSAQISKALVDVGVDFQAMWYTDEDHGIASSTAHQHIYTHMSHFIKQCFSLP

Row | IC50 (DPP-IV enzyme) [µM] | inhibition at 250 µM (DPP-IV enzyme) [%] | SMILES | IC50 (DPP-IV) [µM]
1 | 15.2 ± 1.02 | 92.4 ± 1.11 | O=c1oc2ccc(S(=O)(=O)Nc3ccncc3)cc2cc1Cl [6d, 3-Chloro-2-oxo-N-(pyridin-4-yl)-2H-chromene-6-sulfonamide] | 
2 | 16.3 ± 2.04 | 90.3 ± 2.04 | O=c1oc2ccc(S(=O)(=O)Nc3cccnc3)cc2cc1Cl [6c, 3-Chloro-2-oxo-N-(pyridin-3-yl)-2H-chromene-6-sulfonamide] | 
3 | 15.7 ± 0.98 | 91.15 ± 0.9 | O=c1oc2ccc(S(=O)(=O)Nc3ccccn3)cc2cc1Cl [6b, 3-Chloro-2-oxo-N-(pyridin-2-yl)-2H-chromene-6-sulfonamide] | 
4 |  |  | O=c1ccc2ccccc2o1 [coumarin] | 54.8
5 | 12.92 ± 0.11 | 95.4 ± 1.1 | Cc1ccc(NS(=O)(=O)c2ccc3oc(=O)c(Cl)cc3c2)cc1 [6r, 3-Chloro-2-oxo-N-(p-tolyl)-2H-chromene-6-sulfonamide] | 
6 | 17.73 ± 0.02 | 88.3 ± 2.06 | O=c1oc2ccc(S(=O)(=O)NCc3ccccc3)cc2cc1Cl [6t, N-benzyl-3-chloro-2-oxo-2H-chromene-6-sulfonamide] | 
7 | 14.5 ± 1.2 | 93.5 ± 2.02 | O=c1oc2ccc(S(=O)(=O)Nc3ccccc3)cc2cc1Cl [6a, 3-Chloro-2-oxo-2H-1-benzopyran-6-(N-phenyl)sulfonamide] | 
8 | 11 ± 1 | 95.8 ± 1.08 | O=c1oc2ccc(S(=O)(=O)Nc3nc4ccccc4[nH]3)cc2cc1Cl [6i, 3-Chloro-2-oxo-2H-1-benzopyran-6-(N-benzimidazole)sulfonamide] | 
9 | 18.29 ± 0.1 | 89.3 ± 0.9 | Cc1ccccc1NS(=O)(=O)c1ccc2oc(=O)c(Cl)cc2c1 [6s, 3-Chloro-2-oxo-N-(o-tolyl)-2H-chromene-6-sulfonamide] | 
